According to patent publication US20220323594A1, “LIPIDATED CATIONIC PEPTIDE-PEG COMPOSITIONS FOR NUCLEIC ACID DELIVERY” (NUTCRACKER THERAPEUTICS, INC., priority 2019, published 2022):

Key:
[1] = MTT viability assay after treatment with Fluc mRNA/amino lipidated peptoid formulations; type: cell-based; settings: human, HeLa cells
In short: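 Formulations (peptoid:mRNA 5:1 mass ratio, 2% w/w DMG-PEG2000) were applied at 100 ng Fluc mRNA per well for 8 h, followed by 48 h of growth. Cells then received 1.5 mg/mL MTT for 2 h, and formazan signal was normalized to untreated cells.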

[2] = Dynamic light scattering (DLS) of mRNA/peptoid formulations: particle size and polydispersity; type: physicochemical; settings: Fluc mRNA/peptoid formulation; for Size PDI: size polydispersity index by DLS, 5:1 mass ratio; for Size (nm): volume average particle size/diameter by DLS, 5:1 mass ratio peptoid:cargo
Experimental: (§1) To prepare nanoparticle formulations, the amino lipidated peptoid is mixed by pipetting with nucleic acid at a mass ratio between approximately 1:1 (peptoid:cargo) and 20:1. Prior to formulation, amino lipidated peptoid and nucleic acid cargo were diluted in ethanol and acidic buffer (PBS adjusted to pH 5.5 with 0.1 M HCl) respectively to a volume ratio of 1:3 and to target a final cargo concentration of approximately 0.05 mg/mL to 0.2 mg/mL. The exemplary amino lipidated cationic peptoids described in Example 2 were combined with firefly luciferase (Fluc) mRNA to form nanoparticle compositions to be evaluated for therapeutic and/or prophylactic purposes in vitro or in vivo. The formulations were prepared according to the protocol of Example 3 and mixed by simple pipetting. The mRNA/peptoid formulation at a 5:1 mass ratio of peptoid:cargo were evaluated by dynamic light scattering (DLS) in order to determine the volume average particle size/diameter (nm) of the mRNA/peptoid complex and the size polydispersity index (PDI) within the formulation. The percentage of mRNA encapsulation for each formulation of the exemplary compounds were determined by fluorescence of the Qubit RNA HS (Invitrogen) dye before and after lysis of particles by Triton X-100.

[3] = test system: HeLa cells; experiment: In vitro expression of firefly luciferase (Fluc) after treatment with Fluc mRNA/amino lipidated peptoid formulations, no PEG or 2% DMG-PEG2000; type: cell-based
Experimental: The efficacy of mRNA/amino lipidated peptoid formulations was evaluated in vitro based on their ability to deliver the firefly luciferase (Fluc) reporter gene to cultured cells. Amino lipidated peptoids were combined with Fluc mRNA at a 5:1 w/w ratio, and the resulting particles were added to cultured HeLa cells at a dose of 100 ng/well (in 100 μL total volume). The resulting luciferase expression (RLU) was measured by a luminescence plate reader after 6 hours and 24 hours of treatment. […] In addition to evaluating nanoparticle complexes formed between mRNA cargos and amino lipidated peptoids alone, multicomponent formulations containing a small amount of PEG-lipid DMG-PEG2000 were also tested for in vitro Fluc mRNA delivery. In these formulations, DMG-PEG2000 was pre-mixed with candidate peptoid at an overall 2% incorporation (w/w), while maintaining the same 5:1 mass ratio of peptoid:mRNA used previously.

[4] = test system: HeLa cells; experiment: In vitro Fluc expression with variable peptoid:mRNA mass ratio, 2% DMG-PEG2000; type: cell-based; settings: 24 h; for Observed Luciferase Expression (RLU) for Given Formulation Mass Ratio 2:1: 2% (w/w) DMG-PEG2000, peptoid:mRNA 2:1; for Observed Luciferase Expression (RLU) for Given Formulation Mass Ratio 3.5:1: 2% (w/w) DMG-PEG2000, peptoid:mRNA 3.5:1; for Observed Luciferase Expression (RLU) for Given Formulation Mass Ratio 5:1: 2% (w/w) DMG-PEG2000, peptoid:mRNA 5:1; for Observed Luciferase Expression (RLU) for Given Formulation Mass Ratio 7.5:1: 2% (w/w) DMG-PEG2000, peptoid:mRNA 7.5:1
Experimental: The charge ratio dependence of amino lipidated peptoid delivery vehicles was evaluated by formulating particles between Fluc mRNA and delivery vehicles at varying mass ratios. Formulations were varied between 2:1 and 7.5:1 peptoid:mRNA (w/w) ratios (2:1, 3.5:1, 5:1 and 7.5:1). In addition, the role of DMG-PEG2000 was also explored with the mass ratios, either by excluding DMG-PEG2000 or incorporating DMG-PEG2000 at 2% (w/w) relative to amino lipidated peptoid. Fluc expression from these formulations was measured in HeLa cells following treatment for 24 hours. […] FIGS. 6B and 6C show plots of the average bioluminescence (RLU) for HeLa cells treated with the formulations of exemplary amino lipidated cationic peptoid compounds 1-36, all formulated with 2% w/w DMG-PEG2000.

[5] = mRNA encapsulation by fluorescence of Qubit RNA HS dye before and after lysis with Triton X-100; type: physicochemical; settings: percentage of mRNA encapsulation; Fluc mRNA/peptoid formulation, 5:1 mass ratio
Experimental: as §1, with “The” for “To prepare nanoparticle formulations, the amino lipidated peptoid is mixed by pipetting with nucleic acid at a mass ratio between approximately 1:1 (peptoid:cargo) and 20:1. Prior to formulation, amino lipidated peptoid and nucleic acid cargo were diluted in ethanol and acidic buffer (PBS adjusted to pH 5.5 with 0.1 M HCl) respectively to a volume ratio of 1:3 and to target a final cargo concentration of approximately 0.05 mg/mL to 0.2 mg/mL. The”

[6] = no PEG, peptoid:Fluc mRNA 5:1 w/w, 100 ng/well, 6 h of treatment
[7] = no PEG, peptoid:Fluc mRNA 5:1 w/w, 100 ng/well, 24 h of treatment
[8] = with 2% (w/w) DMG-PEG2000, peptoid:mRNA 5:1, 6 h after treatment
[9] = with 2% (w/w) DMG-PEG2000, peptoid:mRNA 5:1, 24 h after treatment

Structure (SMILES) | viability at 8 h, 500 ng/well ([1]; Relative Viability (%) 2% PEG) | viability at 8 h, 500 ng/well ([1]; Relative Viability (%) No PEG) | Size PDI [2] | Size (nm) [2] | Luciferase Expression (RLU) 6 h [3, 6] | Luciferase Expression (RLU) 24 h [3, 7] | Luciferase Expression (RLU) 6 h [3, 8] | Luciferase Expression (RLU) 24 h [3, 9] | Observed Luciferase Expression (RLU) for Given Formulation Mass Ratio 2:1 [4] | Observed Luciferase Expression (RLU) for Given Formulation Mass Ratio 3.5:1 [4] | Observed Luciferase Expression (RLU) for Given Formulation Mass Ratio 5:1 [4] | Observed Luciferase Expression (RLU) for Given Formulation Mass Ratio 7.5:1 [4] | % Encapsulation [5]
CCCCCCCCCCN(CC(N)=O)C(=O)CN(CCCCCCCCCC)C(=O)CN(CCc1ccccc1)C(=O)CN(CCN)C(=O)CN(CCc1ccccc1)C(=O)CN(CCN)C(=O)CN(CCc1ccccc1)C(=O)CNCCN [Compound 13] | 85.9% | 90.2% | 0.447 | 822.6 nm | 3.67E+00 RLU | 9.67E+00 RLU | 3.27E+01 RLU | 2.67E+00 RLU | 2.68E+01 RLU | 1.74E+01 RLU | 1.39E+02 RLU | 5.36E+00 RLU | 90.4%
CCCCCCCCCCN(CC(N)=O)C(=O)CN(CCCCCCCCCC)C(=O)CN(CCN)C(=O)CN(CCN)C(=O)CN(CCN)C(=O)CN(CCN)C(=O)CNCCN [Compound 15] | 91.9% | 91.2% | 1 | 1064 nm | 3.93E+01 RLU | 1.90E+01 RLU | 5.33E+00 RLU | 5.33E+00 RLU | 8.85E+01 RLU | 3.62E+01 RLU | 2.01E+01 RLU | 6.70E+00 RLU | 76.9%
CCCCCCCCCCN(CC(N)=O)C(=O)CN(CCCCCCCCCC)C(=O)CN(CCN)C(=O)CN(CCN)C(=O)CN(CCN)C(=O)CN(CCN)C(=O)CN(CCN)C(=O)CN(CCN)C(=O)CN(CCN)C(=O)CN(CCN)C(=O)CNCCN [Compound 16] | 90.8% | 89.4% | 1 | 1486 nm | 7.33E+00 RLU | 1.67E+01 RLU | 2.63E+01 RLU | 5.00E+00 RLU | 1.01E+02 RLU | 4.16E+01 RLU | 2.55E+01 RLU | 1.47E+01 RLU | 85.4%
CCCCCCCCCCN(CC(=O)N(CCN)CC(=O)N(CCc1ccccc1)CC(=O)N(CCc1ccccc1)CC(=O)N(CCCCCCCCCC)CC(=O)N(CCN)CC(=O)N(CCc1ccccc1)CC(=O)N(CCc1ccccc1)CC(N)=O)C(=O)CN(CCc1ccccc1)C(=O)CN(CCc1ccccc1)C(=O)CNCCN [Compound 17] | 91.7% | 88% | 0.37 | 472.8 nm | 6.84E+02 RLU | 5.63E+02 RLU | 8.67E+01 RLU | 1.80E+02 RLU | 2.72E+03 RLU | 1.56E+03 RLU | 1.60E+03 RLU | 3.75E+01 RLU | 90.3%
CCCCCCCCCCNCC(=O)N(CCN)CC(=O)N(CCc1ccccc1)CC(=O)N(CCc1ccccc1)CC(=O)N(CCN)CC(=O)N(CCc1ccccc1)CC(=O)N(CCc1ccccc1)CC(=O)N(CCN)CC(=O)N(CCc1ccccc1)CC(=O)N(CCc1ccccc1)CC(=O)N(CCCCCCCCCC)CC(N)=O [Compound 18] | 89.3% | 86.1% | 0.762 | 593 nm | 5.74E+02 RLU | 8.49E+02 RLU | 8.50E+01 RLU | 1.22E+02 RLU | 1.53E+03 RLU | 3.00E+03 RLU | 9.99E+02 RLU | 2.41E+01 RLU | 88.5%
CCCCCCCCCCN(CC(N)=O)C(=O)CN(CCCCCCCCCC)C(=O)CN(CCCCCCCCCC)C(=O)CN(CCCCCCCCCC)C(=O)CN(CCCCCCCCCC)C(=O)CN(CCc1ccccc1)C(=O)CN(CCc1ccccc1)C(=O)CN(CCN)C(=O)CN(CCc1ccccc1)C(=O)CN(CCc1ccccc1)C(=O)CNCCN [Compound 20] | 93% | 87.1% | 0.37 | 326.6 nm | 9.91E+03 RLU | 1.55E+04 RLU | 1.75E+04 RLU | 1.36E+04 RLU | 1.31E+03 RLU | 2.47E+04 RLU | 1.31E+04 RLU | 2.27E+04 RLU | 72.2%
